By EC50 is commonly meant the concentration that produces a half-maximal response.

Here are results for 2 compounds from PMC6463023, “Epigenetic Changes at the Birc5 Promoter Induced by YM155 in Synovial Sarcoma” (Journal of Clinical Medicine, 2019).

In data set [1] the test system is survivin. Also on record: method as in PMID 20816704. The note with it: cited from earlier work.
The test system of data set [2] is Yamato human synovial sarcoma cell line. Kind of data set: MTT viability assay, Yamato cells, 48 h. The note with it: 48 h treatment. The format is cell-based. The protocol:
(§1) The human SYO-1, Yamato, and HS-SY-II cell lines were received from Torsten Nielsen at the University of British Columbia. The MoJo cell line was developed as previously described from a consented patient’s synovial sarcoma. Each was maintained in Dulbecco’s modified Eagle medium (DMEM) with 10% fetal bovine serum (FBS) and tested for mycoplasma using MycoAlert Plus (Lonza, Walkersville, MD, USA) every 6 months. Cells were seeded in a 96-well tissue culture dish at 1 × 10^4 cells per well. Twenty-four hours after seeding, serial dilutions of YM155 were applied so that the final concentration ranged from 10 μM to 1 nM. Between 24 to 48 h, MTT at 5 mg/mL was applied, and the cells were allowed to incubate at 37 °C and 5% CO2 for 2.5 h. Formazan crystals were resolubilized in 10% SDS and 0.01 M HCl. Absorbance was measured at 570 nm and normalized to 650 nm. Caspase activity was measured using the Caspase-Glo 3/7 and Caspase-Glo 8 (Promega, G8090, and G8200) assay systems. The manufacturer’s instructions were followed for a 96-well plate assay.

The test system of data set [3] is Mojo human synovial sarcoma cell line. Kind of data set: MTT viability assay, MoJo cells, 48 h. As to conditions: 48 h treatment. The format is cell-based. The protocol:
as §1
For orientation: Tetrazolium dyes change colour on reduction, which living cells bring about.

The subject of data set [4] is SYO-1 human synovial sarcoma cell line. The experiment in a line: MTT viability assay, SYO-1 cells, 48 h. As to conditions: 48 h treatment. The format is cell-based. How it is done: as §1
Data set [5] concerns HS-SY-II human synovial sarcoma cell line. The experiment in a line: MTT viability assay, HS-SY-II cells, 24 h. The format is cell-based. As to conditions: 24 h viability assay. The protocol:
as §1

The subject of data set [6] is synovial sarcomas expressing Rosa26-LSL-SS18-SSX2. Kind of data set: Tumor growth in genetically engineered mouse model of synovial sarcoma. The format is in vivo. The protocol: Mouse experiments were conducted with the approval of the University of Utah’s Institutional Animal Care Committee in accordance with legal and ethical standards established by the National Research Council and published in the Guide for the Care and Use of Laboratory Animals (protocol # 14-01016). The previously described Rosa26-LSL-SS18-SSX2 mice were maintained on a mixed strain background, C57BL/6 and SvJ. Mice were genotyped with the following primers: Rosa26-LSL-SS18-SSX2 (F flox-[…], F wt–[…]-TGG, R-[…]). TATCre was dosed by 10 μL intramuscular injections at 50 μM at 1 month of age.
(§2) Mice had tumors initiated at 1 month of age. Tumors developed for the next 6 months allowing tumor volumes to reach 500–1000 mm^3. Mice were then subjected to daily intraperitoneal injections of 20 mg/kg of YM155 for 11 days. One mouse with bilateral tumors was censored at day 7. Tumors were measured using digital calipers and volumes were calculated using the equation (L∗W^2)/2. A small portion of the tumor was fixed in 4% paraformaldehyde overnight and then embedded in paraffin. The rest of the tumor was flash frozen in liquid nitrogen and stored at −80 °C until further use.
The control mice group with tumor was compared to the YM155 treated tumor group in a single factor ANOVA statistical test. For most comparisons between control and YM155 treated synovial sarcomas, Student’s t-tests were performed.

Data set [7] in a line: Body weight of mice during YM155 treatment. The format is in vivo, mouse. As to conditions: 20 mg/kg daily for 11 days. The protocol: as §2
For data set [8], the system named is survivin. Kind of data set: Survivin immunoblot of treated mouse synovial sarcomas. The format is in vivo. As to conditions: mouse sarcomas after 11 days of YM155; p = 0.034. The protocol: as §2
(§3) Protein was isolated from cells or tissues by incubating in a mild lysis buffer (10 mM Tris-HCl pH 8.1, 10 mM NaCl, 0.5% NP-40, and proteinase inhibitors). The fractions were clarified at 14,000 rpm for 10 min before loading 25–50 μg/sample for gel electrophoresis and transfer to PVDF membrane. Western blots were probed with the following primary antibodies: anti-Survivin (Cell Signaling Technology, 2808, 1:1000), anti-NFκB/p65 (Cell Signaling Technology, 8242, 1:800) anti-GAPDH (Proteintech, 10494-1-AP, 1:1000). The immunoblots were probed secondarily with goat anti-rabbit antibodies conjugated with horse radish peroxidase and bands were detected using Bio-Rad Gel Doc MP imaging station.
On the technique in general: Immunoblotting shows a protein as a band on a membrane.

Another data set concerns caspase 3/7. Kind of data set: Caspase-Glo 3/7 activity in HS-SY-II cells. As to conditions: 24 h incubation. The format is cell-based, human. How it is done: (§4) Cells were seeded in a 96-well tissue culture dish at 1 × 10^4 cells per well. Twenty-four hours after seeding, serial dilutions of YM155 were applied so that the final concentration ranged from 10 μM to 1 nM. Between 24 to 48 h, MTT at 5 mg/mL was applied, and the cells were allowed to incubate at 37 °C and 5% CO2 for 2.5 h. Formazan crystals were resolubilized in 10% SDS and 0.01 M HCl. Absorbance was measured at 570 nm and normalized to 650 nm. Caspase activity was measured using the Caspase-Glo 3/7 and Caspase-Glo 8 (Promega, G8090, and G8200) assay systems. The manufacturer’s instructions were followed for a 96-well plate assay.

The test system of another data set is caspase 8. The experiment in a line: Caspase-Glo 8 activity in HS-SY-II cells. The format is cell-based, human. The note with it: 24 h incubation. The protocol:
as §4

The next data set concerns BIRC5. Kind of data set: BIRC5 transcript level by PCR normalized to GAPDH. The format is cell-based, human. The note with it: HS-SY-II, 24 h, normalized to GAPDH mRNA; p = 0.0006.
For data set [9], the system named is BIRC5 promoter. Kind of data set: ChIP-qPCR of histone marks at the BIRC5 promoter in HS-SY-II cells. The format is cell-based, human. As to conditions: 0.2 μM YM155, 24 h, vs controls. How it is done:
(§5) Mouse tumors were pulverized in a Covaris tissueTUBE attached to a Covaris glass tube (13 × 65 mm) using a hammer and an aluminum block on dry ice. Samples were intermittently placed in liquid nitrogen to maintain molecular interactions. The powderized tissue was resuspended in PBS + protease inhibitors (Sigma, 11836153001, St. Louis, MO, USA) and fixed in 1% formaldehyde for 10 min at room temperature. The cross linking was quenched by adding 125 mM glycine. Samples were washed three times using cold PBS and cold centrifugation at 1000× g for 5 min. Similarly, cells can be fixed in 1% formaldehyde and washed while cells are still adherent to the bottom of the tissue culture dish. Cells in both cases were lysed using cold Farnham cell lysis buffer (5mM PIPES pH 8.0, 85 mM KCl, 0.5% NP-40) with protease inhibitors by incubating on ice for 10 min. Cells were collected and dounced with a glass tube and rod 20 times with a loose rod and 10 times with a tight rod. Samples were filtered through 70 μm filter and centrifuged at 1000× g for 10 min. The supernatant was removed and 1 mL of RIPA lysis buffer (1% NP-40, 0.5% Na deoxycholate, 0.1% SDS/PBS) was added for every 300 mg of tissue or 1 × 10^7 cells and incubated on ice for 10 min. Sonication proceeded in the following manner: 1 mL aliquots were sonicated with a 30 s on and 30 s off cycle for 8 cycles totaling 4 min of sonication time. Sonicated samples were centrifuged at 1400 rpm for 5 min and the supernatant was kept for chromatin immunoprecipitation.
Dynabeads (Invitrogen, 11204D, Carlsbad, CA, USA) were washed in 0.5 mg/mL BSA/PBS three times on a magnet. Sonicated samples were precleared with 30 μL of beads for 1 h at 4 °C. After preclearing, 50 μL of the sample was set aside as the input DNA. Supernatants were transferred to a new tube and 5 μg of primary antibodies were added and incubated overnight at 4 °C. The following antibodies were used for immunoprecipitation. […]
A general note: Quantitative PCR measures a nucleic acid by following its amplification.

In data set [10] the test system is Birc5 promoter. Kind of data set: ChIP-qPCR of histone marks at the Birc5 promoter in treated mouse synovial sarcomas. The note with it: mouse synovial sarcomas treated 11 days, vs controls. The format is in vivo. The protocol: as §2
Mouse tumors were pulverized in a Covaris tissueTUBE attached to a Covaris glass tube (13 × 65 mm) using a hammer and an aluminum block on dry ice. Samples were intermittently placed in liquid nitrogen to maintain molecular interactions. The powderized tissue was resuspended in PBS + protease inhibitors (Sigma, 11836153001, St. Louis, MO, USA) and fixed in 1% formaldehyde for 10 min at room temperature. The cross linking was quenched by adding 125 mM glycine. Samples were washed three times using cold PBS and cold centrifugation at 1000× g for 5 min. Similarly, cells can be fixed in 1% formaldehyde and washed while cells are still adherent to the bottom of the tissue culture dish. […]

Another data set deals with NFκB. Kind of data set: NFκB immunoblot of treated mouse synovial sarcomas. The format is in vivo. As to conditions: mouse sarcomas after 11 days of YM155; p = 0.015. How it is done: as §2, §3
For data set [11], the system named is NFκB binding to the BIRC5 promoter. Kind of data set: ChIP-qPCR for NFκB at the BIRC5 promoter in HS-SY-II cells. The format is cell-based, human. The note with it: 0.2 μM YM155, 24 h, vs control, p = 0.32. The protocol: as §5, with “Sonicated samples were centrifuged at 1400 rpm for 5 min and the supernatant was kept for chromatin immunoprecipitation.” left out

Another data set has as its system synovial sarcoma. The experiment in a line: YM155 in combination with BCL2 inhibitors.
On the set-up of data set [12]: method as in PMID 18824702. As to conditions: patients, clinical trials; cited from earlier work.

As to `Cc1ccc(S(=O)(=O)/C=C/C#N)cc1` [BAY 11-7082], the “survivin levels upon inhibition of NFκB” value in the data set with survivin [1] was “decrease in survivin levels”.

As to `COCCn1c2c([n+](Cc3cnccn3)c1C)C(=O)c1ccccc1C2=O` [YM155, sepantronium bromide], the EC50 in data set [2] came out at 22 nM; in [3] it was 62 nM; in data set [4], 103 nM; in data set [5] it was 2640 ± 140 nM. The “decrease of tumor growth (mean) over 11 days” value in data set [6] (20 mg/kg daily intraperitoneal for 11 days, control tumors 1.78-fold increase, p = 0.028) stood at 17%. Further, the “reduction in tumor volume compared to control treated mice” value in [6] (treated mice with synovial sarcoma) stood at 50%. Moreover, the “weight loss in treated mice” value in data set [7] is “no detectable weight loss”. Further, the “survivin protein level (immunoblot, normalized to GAPDH)” value with survivin [8] is listed as “striking decrease”. The “caspase 3/7 activity” value with caspase 3/7 was “increased with higher concentrations”. Further, in the data set on caspase 8, the “caspase 8 activity” value is “increased with higher concentrations”. Also, the “reduction in normalized BIRC5 expression” value with BIRC5 came to 39.5%. Moreover, the “H3K4me1 at the BIRC5 promoter (ChIP-qPCR)” value in the data set with BIRC5 promoter [9] is reported as “a decrease”. For the same compound, the “H3K27ac at the Birc5 promoter (ChIP-qPCR)” value in the data set with BIRC5 promoter [9] and in the data set with Birc5 promoter [10] (p = 0.14) was “elevated levels” in each case. The “H3K27me3 at the Birc5 promoter (ChIP-qPCR)” value with BIRC5 promoter [9] and in the data set on Birc5 promoter [10] (p = 0.045) was “elevated levels” in each case. The “NFκB protein level (immunoblot, normalized to GAPDH)” value in the data set with NFκB is “striking increase”. Further, in [11], the “binding of NFκB to the BIRC5 promoter (ChIP-qPCR)” value was “unable to detect a difference”. The “synergy of combination with BCL2 inhibitors” value in the data set with synovial sarcoma was “minimally synergistic”. The “dose associated with adverse events” value in data set [12] is listed as “above 4.8 mg/m^2/day”.
